Measured values taken from ChEMBL document CHEMBL6092214, “Design, synthesis, and pharmacological characterization of sulfonylurea-based NLRP3 inhibitors: Towards an effective therapeutic strategy for Alzheimer's disease” (Eur J Med Chem, 2024).
Active and inactive are the calls of the source. The calls are words filed in the database; no cut-off is given here.

How the values were obtained:
[1] = target: T1, NACHT, LRR and PYD domains-containing protein 3 (Homo sapiens, UniProt Q96P20); test: (§1) Inhibition of NLRP3 inflammasome activation in PMA-differentiated human THP-1 cells assessed as reduction in LPS/MSU-induced IL-1beta secretion preincubated with LPS for 3 hrs followed by compound addition for 30 mins prior to MSU addition and measured after 4 hrs by ELISA method; assay type: cell-based
Mus musculus [2] = test: Neuroprotective activity against scopolamine-induced cognitive impairment in AD mouse model assessed as reduction in escape latency at 10 mg/kg administered daily by Morris water maze test; assay type: functional, organism-based
[3] = target: T1, NACHT, LRR and PYD domains-containing protein 3; test: as §1, with “LPS/Nigericin-induced” for “LPS/MSU-induced”, “secretion at 3 nM” for “secretion”, “nigericin” for “MSU”, “30 mins” for “4 hrs”, “method relative to control” for “method”; assay type: cell-based; conditions: time 1.0 hrs
[4] = target: T1, NACHT, LRR and PYD domains-containing protein 3; test: as §1, with “LPS/Nigericin-induced” for “LPS/MSU-induced”, “secretion at 30 nM” for “secretion”, “nigericin” for “MSU”, “30 mins” for “4 hrs”; assay type: cell-based; conditions: time 1.0 hrs
HEK293 = test: Cytotoxicity against HEK293 cells assessed as cell viability at 0.39 to 100 uM incubated for 24 hrs by CCK-8 method; assay type: toxicity, cell-based; conditions: human, hek293, 24 h, dose 0.39-100 µM
[5] = target: NACHT, LRR and PYD domains-containing protein 3 (Mus musculus) (UniProt Q8R4B8); test: Inhibition of NLRP3 inflammasome activation in mouse BMDM cells assessed as effect on LPS/Nigericin induced NEK7 expression level at 10 to 40 nM by Western blot analysis; assay type: cell-based; conditions: dose 10-40 nM
[6] = target: NACHT, LRR and PYD domains-containing protein 3 (Mus musculus) (UniProt Q8R4B8); test: Inhibition of NLRP3 inflammasome activation in mouse BMDM cells assessed as decrease in LPS/Nigericin induced caspase-1 level by Western blot analysis; assay type: cell-based; conditions: dose 10-40 nM
[7] = target: T1, NACHT, LRR and PYD domains-containing protein 3; test: Binding affinity to NLRP3 (unknown origin) assessed as dissociation constant by Surface Plasmon Resonance analysis
[8] = target: NACHT, LRR and PYD domains-containing protein 3 (Mus musculus) (UniProt Q8R4B8); test: Inhibition of NLRP3 inflammasome activation in mouse BMDM cells assessed as effect on LPS/Nigericin induced NLRP3 expression level at 10 to 40 nM by Western blot analysis; assay type: cell-based; conditions: dose 10-40 nM
Mus musculus [9] = test: Anti-aging activity in […] AD mouse model assessed as reduction in beta-galactosidase level at 10 mg/kg administered via gavage daily for 30 days; assay type: functional, organism-based; conditions: time 30.0 day
[10] = target: T1, NACHT, LRR and PYD domains-containing protein 3; test: Inhibition of NLRP3 inflammasome activation in LPS/Nigericin induced PMA-differentiated human THP-1 cells assessed as effect on mitochondrial membrane potential by Mitotracker staining based immunofluorescence analysis; assay type: cell-based
Mus musculus [11] = test: Anti-aging activity in […] AD mouse model assessed as upregulation of IGF-1 expression at 10 mg/kg administered via gavage daily for 30 days; assay type: functional, organism-based; conditions: time 30.0 day
[12] = target: NACHT, LRR and PYD domains-containing protein 3 (Mus musculus) (UniProt Q8R4B8); test: Inhibition of NLRP3 inflammasome activation in mouse BMDM cells assessed as effect on LPS/Nigericin induced ASC expression level at 10 to 40 nM by Western blot analysis; assay type: cell-based; conditions: dose 10-40 nM
[13] = target: NACHT, LRR and PYD domains-containing protein 3 (Mus musculus) (UniProt Q8R4B8); test: Inhibition of NLRP3 inflammasome activation in mouse BMDM cells assessed as effect on LPS/Nigericin induced pro-IL-1beta expression level at 10 to 40 nM by Western blot analysis; assay type: cell-based; conditions: dose 10-40 nM
[14] = target: T1, NACHT, LRR and PYD domains-containing protein 3; test: (§2) Inhibition of NLRP3 inflammasome activation in PMA-differentiated human THP-1 cells assessed as reduction in LPS/ATP-induced IL-1beta secretion at 30 nM preincubated with LPS for 3 hrs followed by compound addition for 30 mins prior to ATP addition and measured after 30 mins by ELISA method; assay type: cell-based; conditions: time 1.0 hrs
[15] = target: NACHT, LRR and PYD domains-containing protein 3 (Mus musculus) (UniProt Q8R4B8); test: Inhibition of NLRP3 inflammasome activation in mouse BMDM cells assessed as decrease in LPS/Nigericin induced IL-1 beta level by Western blot analysis; assay type: cell-based; conditions: dose 10-40 nM
Mus musculus [16] = test: Locomotor activity in mouse assessed as effect on total distance traveled at 30 mg/kg measured for 1.5 hrs by Open field test; assay type: functional, organism-based
[17] = target: T1, NACHT, LRR and PYD domains-containing protein 3; test: as §2, with “at 3” for “at 30”, “method relative to control” for “method”; assay type: cell-based; conditions: time 1.0 hrs
[18] = Hepatotoxicity in mouse assessed as effect on AST level at 10 mg/kg measured after 30 days; assay type: toxicity, organism-based; conditions: in vivo, 720 h, time 30 day
Mus musculus [19] = organism: Mus musculus; test: Neuroprotective activity against scopolamine-induced cognitive impairment in AD mouse model assessed as reduction in escape latency by Morris water maze test; assay type: functional, organism-based; conditions: dose 5-30 mg/kg
[20] = target: NACHT, LRR and PYD domains-containing protein 3 (Mus musculus) (UniProt Q8R4B8); test: Inhibition of NLRP3 inflammasome activation in mouse BMDM cells assessed as effect on LPS/Nigericin induced procaspase-1 expression level at 10 to 40 nM by Western blot analysis; assay type: cell-based; conditions: dose 10-40 nM
[21] = Hepatotoxicity in mouse assessed as effect on ALT level at 10 mg/kg measured after 30 days; assay type: toxicity, organism-based; conditions: in vivo, 720 h, time 30 day
[22] = target: T1, NACHT, LRR and PYD domains-containing protein 3; test: Inhibition of NLRP3 inflammasome activation in LPS/Nigericin induced PMA-differentiated human THP-1 cells assessed as effect on ROS production by measuring red fluorescence by MitoSOX staining based immunofluorescence analysis; assay type: cell-based

Sequence of NACHT, LRR and PYD domains-containing protein 3 (Mus musculus) (Q8R4B8 whole entry, the tested form may be a part): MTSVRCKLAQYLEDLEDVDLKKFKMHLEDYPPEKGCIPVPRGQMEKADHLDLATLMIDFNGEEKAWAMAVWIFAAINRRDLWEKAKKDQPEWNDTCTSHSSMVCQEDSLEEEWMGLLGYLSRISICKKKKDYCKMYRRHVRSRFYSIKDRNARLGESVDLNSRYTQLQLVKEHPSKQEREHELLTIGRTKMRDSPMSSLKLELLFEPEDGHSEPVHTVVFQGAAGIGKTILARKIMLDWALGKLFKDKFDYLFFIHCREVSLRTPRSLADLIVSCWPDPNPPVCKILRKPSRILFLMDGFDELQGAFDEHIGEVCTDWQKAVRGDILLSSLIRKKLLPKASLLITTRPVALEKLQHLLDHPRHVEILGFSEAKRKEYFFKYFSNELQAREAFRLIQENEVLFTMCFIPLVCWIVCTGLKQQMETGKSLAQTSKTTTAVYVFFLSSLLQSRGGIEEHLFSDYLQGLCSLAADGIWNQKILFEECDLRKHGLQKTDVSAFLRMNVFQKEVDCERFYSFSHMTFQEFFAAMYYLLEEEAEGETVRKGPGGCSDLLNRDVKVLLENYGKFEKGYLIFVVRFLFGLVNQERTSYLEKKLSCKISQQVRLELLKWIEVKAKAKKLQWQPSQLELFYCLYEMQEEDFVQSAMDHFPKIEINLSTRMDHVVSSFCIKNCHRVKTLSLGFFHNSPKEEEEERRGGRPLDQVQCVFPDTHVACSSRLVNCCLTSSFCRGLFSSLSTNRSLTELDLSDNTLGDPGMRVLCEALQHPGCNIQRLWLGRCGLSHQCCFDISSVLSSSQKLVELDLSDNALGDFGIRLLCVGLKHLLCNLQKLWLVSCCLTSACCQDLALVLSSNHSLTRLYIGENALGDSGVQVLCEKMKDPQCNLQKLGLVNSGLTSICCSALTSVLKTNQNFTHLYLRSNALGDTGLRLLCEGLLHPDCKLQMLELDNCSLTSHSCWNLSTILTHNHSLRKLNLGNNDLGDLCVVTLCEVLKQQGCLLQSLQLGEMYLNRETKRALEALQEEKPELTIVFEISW
T1 sequence (Q96P20 whole entry, the tested form may be a part): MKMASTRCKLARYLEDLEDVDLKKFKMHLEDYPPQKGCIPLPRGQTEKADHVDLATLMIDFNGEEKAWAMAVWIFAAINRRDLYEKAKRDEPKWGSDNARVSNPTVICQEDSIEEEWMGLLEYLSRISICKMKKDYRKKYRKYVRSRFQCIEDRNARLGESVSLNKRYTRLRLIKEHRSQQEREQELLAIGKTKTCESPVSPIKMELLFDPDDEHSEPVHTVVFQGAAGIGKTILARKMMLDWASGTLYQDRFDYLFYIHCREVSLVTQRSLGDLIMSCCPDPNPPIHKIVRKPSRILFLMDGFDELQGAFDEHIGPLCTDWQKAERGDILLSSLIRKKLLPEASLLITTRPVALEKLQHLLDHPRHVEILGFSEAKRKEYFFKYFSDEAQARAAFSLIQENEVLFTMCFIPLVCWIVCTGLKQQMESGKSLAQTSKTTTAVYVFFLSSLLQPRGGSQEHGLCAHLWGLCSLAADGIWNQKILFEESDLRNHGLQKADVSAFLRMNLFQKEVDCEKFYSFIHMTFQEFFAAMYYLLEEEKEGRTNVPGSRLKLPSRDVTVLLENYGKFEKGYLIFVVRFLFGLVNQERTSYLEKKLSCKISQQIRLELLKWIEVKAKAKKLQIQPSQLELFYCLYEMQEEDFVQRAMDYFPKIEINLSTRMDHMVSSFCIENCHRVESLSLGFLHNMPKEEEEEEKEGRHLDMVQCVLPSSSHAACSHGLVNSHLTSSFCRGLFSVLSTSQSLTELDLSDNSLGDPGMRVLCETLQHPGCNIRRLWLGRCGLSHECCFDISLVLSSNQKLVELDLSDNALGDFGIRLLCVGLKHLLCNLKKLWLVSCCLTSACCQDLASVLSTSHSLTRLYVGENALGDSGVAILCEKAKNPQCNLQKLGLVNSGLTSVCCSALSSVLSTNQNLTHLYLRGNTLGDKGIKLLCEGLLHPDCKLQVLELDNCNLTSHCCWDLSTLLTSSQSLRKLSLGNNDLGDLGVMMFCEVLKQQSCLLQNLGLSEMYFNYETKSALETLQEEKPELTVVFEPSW

In the case of `O=C(Nc1c(-c2ccc([N+](=O)[O-])cc2)ccc2c1CCC2)NS(=O)(=O)c1cnn2c1OCCC2`, the IC50 [1] is reported as 674 nM.

Compound `CC(C)(C)c1cc(-c2ccc3c(c2NC(=O)NS(=O)(=O)c2cc(C(C)(C)O)co2)CCC3)cc(C(C)(C)C)c1` has an IC50 [1] of over 1000 nM.

Work on `Cc1nn(C)cc1S(=O)(=O)NC(=O)Nc1c(-c2ccc([N+](=O)[O-])cc2)ccc2c1CCC2` yielded an IC50 [1] of over 1000 nM.

For `CC(C)(O)c1coc(S(=O)(=O)NC(=O)Nc2c(-c3cccc(OC(F)(F)F)c3)ccc3c2CCC3)c1`, the IC50 [1] was 357 nM.

Compound `CCCCc1ccc(-c2ccc3c(c2NC(=O)NS(=O)(=O)c2cc(C(C)(C)O)co2)CCC3)cc1` has an IC50 [1] of over 1000 nM.

Compound `O=C(Nc1c(-c2ccc([N+](=O)[O-])cc2)ccc2c1CCC2)NS(=O)(=O)c1cc(Br)cs1` has an IC50 [1] of over 1000 nM.

With `Cc1ccc(S(=O)(=O)NC(=O)Nc2c(-c3ccc([N+](=O)[O-])cc3)ccc3c2CCC3)cc1` the IC50 [1] was over 1000 nM.

With `COC(=O)c1csc(S(=O)(=O)NC(=O)Nc2c(-c3ccc([N+](=O)[O-])cc3)ccc3c2CCC3)c1` the IC50 [1] was 334 nM.

Work on `O=C(Nc1c(-c2ccc([N+](=O)[O-])cc2)ccc2c1CCC2)NS(=O)(=O)c1cccnc1` yielded an IC50 [1] of over 1000 nM.

For `CC(C)(O)CS(=O)(=O)NC(=O)Nc1c(-c2ccc([N+](=O)[O-])cc2)ccc2c1CCC2`, the IC50 [1] was over 1000 nM.

For `O=C(Nc1c(-c2ccc([N+](=O)[O-])cc2)ccc2c1CCC2)NS(=O)(=O)c1cccc(Br)n1`, the IC50 [1] was 212 nM.

`CCOc1ccc2cc(-c3ccc4c(c3NC(=O)NS(=O)(=O)c3cc(C(C)(C)O)co3)CCC4)ccc2c1` gave an IC50 [1] of 72 nM.

`COc1cccc(OC)c1-c1ccc2c(c1NC(=O)NS(=O)(=O)c1cc(C(C)(C)O)co1)CCC2` gave an IC50 [1] of over 1000 nM.

Work on `Cn1ccc(S(=O)(=O)NC(=O)Nc2c(-c3ccc([N+](=O)[O-])cc3)ccc3c2CCC3)n1` yielded an IC50 [1] of over 1000 nM.

Compound `COCCOc1ccc(-c2ccc3c(c2NC(=O)NS(=O)(=O)c2cc(C(C)(C)O)co2)CCC3)cc1` has an IC50 [1] of 244 nM.

With `CCCCNC(=O)c1cccc(-c2ccc3c(c2NC(=O)NS(=O)(=O)c2cc(C(C)(C)O)co2)CCC3)c1` the IC50 [1] was 84 nM.

For `Cc1cccc(-c2ccc3c(c2NC(=O)NS(=O)(=O)c2cc(C(C)(C)O)co2)CCC3)c1`, the IC50 [1] was 76 nM.

For `O=C(Nc1c(-c2ccc([N+](=O)[O-])cc2)ccc2c1CCC2)NS(=O)(=O)CC1CCCCC1`, the IC50 [1] was over 1000 nM.

With `Nc1cccc(S(=O)(=O)NC(=O)Nc2c(-c3ccc([N+](=O)[O-])cc3)ccc3c2CCC3)c1` the IC50 [1] was 403 nM.

For `CN(C)c1cccc(-c2ccc3c(c2NC(=O)NS(=O)(=O)c2cc(C(C)(C)O)co2)CCC3)c1`, the IC50 [1] was over 1000 nM.

In the case of `O=C(Nc1c(-c2ccc([N+](=O)[O-])cc2)ccc2c1CCC2)NS(=O)(=O)N1CCOCC1`, the IC50 [1] is reported as over 1000 nM.

Work on `O=C(Nc1c(-c2ccc([N+](=O)[O-])cc2)ccc2c1CCC2)NS(=O)(=O)N1CCCC1` yielded an IC50 [1] of over 1000 nM.

In the case of `O=C(Nc1c(-c2ccc([N+](=O)[O-])cc2)ccc2c1CCC2)NS(=O)(=O)CCO`, the IC50 [1] is reported as over 1000 nM.

With `CC(C)(O)c1coc(S(=O)(=O)NC(=O)Nc2c3c(cc4c2CCC4)CCC3)c1` the Activity (Mus musculus [2]) was “Active”.

`COc1cncc(-c2ccc3c(c2NC(=O)NS(=O)(=O)c2cc(C(C)(C)O)co2)CCC3)c1` gave an IC50 [1] of 32 nM.

Compound `O=C(Nc1c(-c2ccc([N+](=O)[O-])cc2)ccc2c1CCC2)NS(=O)(=O)c1ccccc1` has an IC50 [1] of 355 nM.

`CN[C@H]1COc2c(S(=O)(=O)NC(=O)Nc3c(-c4ccc([N+](=O)[O-])cc4)ccc4c3CCC4)cnn2C1` gave an IC50 [1] of 260 nM.

`CC(C)c1cccc(-c2ccc3c(c2NC(=O)NS(=O)(=O)c2cc(C(C)(C)O)co2)CCC3)c1` gave an IC50 [1] of over 1000 nM.

For `Cc1ccsc1S(=O)(=O)NC(=O)Nc1c(-c2ccc([N+](=O)[O-])cc2)ccc2c1CCC2`, the IC50 [1] was over 1000 nM.

With `CCCCNS(=O)(=O)c1cccc(-c2ccc3c(c2NC(=O)NS(=O)(=O)c2cc(C(C)(C)O)co2)CCC3)c1` the IC50 [1] was over 1000 nM.

Compound `CC(=O)c1ccc(S(=O)(=O)NC(=O)Nc2c(-c3ccc([N+](=O)[O-])cc3)ccc3c2CCC3)cc1` has an IC50 [1] of 426 nM.

Work on `Cc1cc(F)ccc1-c1ccc2c(c1NC(=O)NS(=O)(=O)c1cc(C(C)(C)O)co1)CCC2` yielded an IC50 [1] of 564 nM.

Work on `CC(C)(O)c1coc(S(=O)(=O)NC(=O)Nc2c3c(cc(Br)c2OC2CCCC2)CCC3)c1` yielded an IC50 [1] of over 1000 nM.

Compound `CC(C)(O)c1coc(S(=O)(=O)NC(=O)Nc2c(-c3ccnc(F)c3)ccc3c2CCC3)c1` has an IC50 [1] of 27 nM.

With `CCCCOc1cccc(-c2ccc3c(c2NC(=O)NS(=O)(=O)c2cc(C(C)(C)O)co2)CCC3)c1` the IC50 [1] was 287 nM.

With `CC(C)(O)c1coc(S(=O)(=O)NC(=O)Nc2c(-c3ccc([N+](=O)[O-])cc3)ccc3c2CCC3)c1` the IC50 [1] was 6 nM.

`O=C(Nc1c(-c2ccc([N+](=O)[O-])cc2)ccc2c1CCC2)NS(=O)(=O)c1cccs1` gave an IC50 [1] of 54 nM.

`CC(C)c1cc(I)cc(C(C)C)c1NC(=O)NS(=O)(=O)c1cc(C(C)(C)O)co1` showed an IC50 [1] of 31 nM.

In the case of `O=C(Nc1c(-c2ccc([N+](=O)[O-])cc2)ccc2c1CCC2)NS(=O)(=O)c1ccc2ccccc2c1`, the IC50 [1] is reported as over 1000 nM.

With `CC(C)(O)c1csc(S(=O)(=O)NC(=O)Nc2c(-c3ccc([N+](=O)[O-])cc3)ccc3c2CCC3)c1` the inhibition [3] was over 50%, the inhibition [4] was “Active; Compound Nearly Abolished Il-1 Beta Secretion” and the IC50 [1] was 12 nM. The Activity (HEK293) was “Non-toxic”, the inhibition [5] was “inactive” and the inhibition [6] was “Dose-dependent-effect”. The Kd [7] was 19.3 nM, the inhibition [8] was “inactive” and the Activity (Mus musculus [9]) was “Active”. For the same compound, the inhibition [10] was “inactive”, the Activity (Mus musculus [11]) was “Active” and the inhibition [12] was “inactive”. For the same compound, the inhibition [13] was “inactive”, the inhibition [14] was “Active; Compound Nearly Abolished Il-1 Beta Secretion” and the inhibition [15] was “Dose-dependent-effect”. For the same compound, the Activity (Mus musculus [16]) was “Active”, the inhibition [17] was over 50% and the Activity [18] was “Non-toxic”. The Activity (Mus musculus [19]) was “Dose-dependent-effect”, the inhibition [20] was “inactive” and the Activity [21] was “Non-toxic”. For the same compound, the inhibition [22] was “inactive”.

`CN(C)Cc1ccc(S(=O)(=O)NC(=O)Nc2c(-c3ccc([N+](=O)[O-])cc3)ccc3c2CCC3)cc1` showed an IC50 [1] of over 1000 nM.
